Assay [1] deals with T1, BPSS2242 (Burkholderia pseudomallei, UniProt Q63I27).
Assay [2] concerns the target T1, BPSS2242. The source holds these as a separate data set.

T1 sequence (Q63I27 1-271 limits assumed): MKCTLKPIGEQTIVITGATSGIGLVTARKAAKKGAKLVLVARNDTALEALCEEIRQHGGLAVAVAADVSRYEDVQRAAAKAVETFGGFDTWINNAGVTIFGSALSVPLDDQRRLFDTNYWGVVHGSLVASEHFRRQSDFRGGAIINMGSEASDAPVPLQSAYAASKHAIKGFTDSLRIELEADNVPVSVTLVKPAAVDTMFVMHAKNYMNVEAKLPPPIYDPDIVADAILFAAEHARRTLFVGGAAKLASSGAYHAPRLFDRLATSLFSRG

As for `CC(=O)C=O` [methylglyoxal], in assay [1], the “NADPH oxidation at 340 nm” value was “BPSS2242 exhibited reductase activity toward diacetyl and methylglyoxal when NADPH was used”. For the compound `NC(=O)C1=CN([C@@H]2O[C@H](COP(=O)(O)OP(=O)(O)OC[C@H]3O[C@@H](n4cnc5c(N)ncnc54)[C@H](OP(=O)(O)O)[C@@H]3O)[C@@H](O)[C@H]2O)C=CC1` [NADPH], in assay [2], the Tm came to 55.23 °C.

(Values after article PMC7320009 (Scientific Reports, 2020).)
